The results in this text go back to article PMC11035696, “Prospective de novo drug design with deep interactome learning” (Nature Communications, 2024).

Molecules are shown by their SMILES.

The subject of test [1] is CA2+ CHANNEL (DILTIAZEM SITE). Briefly: Safety off-target panel, binding. Also on record: species or system Rat. The note with it: 10 µM, single point. From the text: (§1) Table S9-S12 list all targets, their species, inhibition (%) and assay type for the experiments conducted in the
(§2) off-targets. […] The numbers for mean
(§3) inhibition (%) represent single point measurements.
(§4) off-targets. […] The numbers for
(§5) mean inhibition (%) represent single point measurements.

Another test relates to PCP RECEPTOR
Put plainly: Safety off-target panel, binding. Also noted: species or system Rat. To be noted: 10 µM, single point.
From the text: as §1, §2, §3, §4, §5

Test [2] concerns GABA-A (BENZODIAZAPINE BINDING SITE). Put plainly: Safety off-target panel, binding. The note with it: 10 µM, single point. Also on record: species or system Rat.
From the text: as §1, §2, §3, §4, §5

The target in a further test is CYP2C19 (Homo sapiens, UniProt P33261). Briefly: CYP inhibition dose-response. The class given is in vitro ADME. To be noted: substrate S-MEPHENYTOIN
CYP2C19, sequence (P33261 whole entry): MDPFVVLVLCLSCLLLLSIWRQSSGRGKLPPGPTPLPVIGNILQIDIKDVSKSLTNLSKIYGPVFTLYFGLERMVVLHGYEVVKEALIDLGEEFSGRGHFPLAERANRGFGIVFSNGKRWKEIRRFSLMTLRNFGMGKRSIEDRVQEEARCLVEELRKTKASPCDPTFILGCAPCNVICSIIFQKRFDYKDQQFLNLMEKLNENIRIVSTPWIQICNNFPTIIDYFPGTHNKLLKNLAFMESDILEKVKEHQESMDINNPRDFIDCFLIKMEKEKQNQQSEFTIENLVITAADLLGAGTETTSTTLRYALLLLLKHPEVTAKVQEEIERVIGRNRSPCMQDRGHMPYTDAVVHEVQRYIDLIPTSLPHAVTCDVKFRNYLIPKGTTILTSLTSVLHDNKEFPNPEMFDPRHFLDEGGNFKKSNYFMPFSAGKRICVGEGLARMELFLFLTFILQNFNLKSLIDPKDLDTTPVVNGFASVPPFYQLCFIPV
As to the method:
(§6) SI11Absorption Distribution Metabolism and Excretion and Toxicity Data
(§7) To assess the drug-like characteristics of the newly designed PPAR modulators, a series of tests were conducted covering various aspects of absorption, distribution, metabolism, and excretion (ADME) properties. Specifically, these assessments included the parallel artificial membrane permeability assay (PAMPA) with permeation co- […]
(§8) efficients ([…]), LogD measurements, microsomal clearance, hepatocyte clearance, P-glycoprotein (Pgp) efflux ratio and binding and the unbound free fraction. Furthermore, the evaluation of inhibition po-tential against cytochrome P450 isoenzymes (CYP) proteins was investigated. For seven selected CYP proteins (i.e., Cyp3A4, Cyp1A2, Cyp2B6, Cyp2C9, Cyp2D6, Cyp2C19, and Cyp2C8) the half maximal inhibitory con-centration (IC50) was determined. (Table S15). […]
(§9) activity in the CYP assays was found.
(§10) Table S14: Absorption distribution metabolism and excretion (ADME) properties of compounds 1 and 2. […]
(§11) The values for microsomal clearance and CYP-inhibition represent single point measurements. […]
(§12) Molecule Enzyme Substrate IC50 (µM) […]

Another test deals with CYP2B6 (Homo sapiens, UniProt P20813). Briefly: CYP inhibition dose-response. The class given is in vitro ADME. The note with it: substrate BUPROPION
CYP2B6, sequence (P20813 whole entry): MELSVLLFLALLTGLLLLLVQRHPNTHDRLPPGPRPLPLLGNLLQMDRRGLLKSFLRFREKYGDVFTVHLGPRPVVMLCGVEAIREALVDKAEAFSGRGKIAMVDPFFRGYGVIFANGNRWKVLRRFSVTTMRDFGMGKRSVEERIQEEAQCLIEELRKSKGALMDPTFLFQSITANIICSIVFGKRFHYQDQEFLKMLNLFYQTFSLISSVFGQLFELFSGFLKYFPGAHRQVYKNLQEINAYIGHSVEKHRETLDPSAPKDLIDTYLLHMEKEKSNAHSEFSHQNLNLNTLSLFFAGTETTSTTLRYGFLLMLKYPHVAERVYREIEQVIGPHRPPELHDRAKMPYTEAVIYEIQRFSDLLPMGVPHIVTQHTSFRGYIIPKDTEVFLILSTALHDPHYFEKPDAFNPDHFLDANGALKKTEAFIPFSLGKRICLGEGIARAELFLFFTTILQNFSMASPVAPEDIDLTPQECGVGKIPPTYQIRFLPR
As to the method: as §6, §7, §8, §9, §10, §11, §12

For a further test, the target named is CYP1A2 (Homo sapiens, UniProt P05177). Briefly: CYP inhibition dose-response. Format: in vitro ADME. The note with it: substrate PHENACETIN
CYP1A2, sequence (P05177 whole entry): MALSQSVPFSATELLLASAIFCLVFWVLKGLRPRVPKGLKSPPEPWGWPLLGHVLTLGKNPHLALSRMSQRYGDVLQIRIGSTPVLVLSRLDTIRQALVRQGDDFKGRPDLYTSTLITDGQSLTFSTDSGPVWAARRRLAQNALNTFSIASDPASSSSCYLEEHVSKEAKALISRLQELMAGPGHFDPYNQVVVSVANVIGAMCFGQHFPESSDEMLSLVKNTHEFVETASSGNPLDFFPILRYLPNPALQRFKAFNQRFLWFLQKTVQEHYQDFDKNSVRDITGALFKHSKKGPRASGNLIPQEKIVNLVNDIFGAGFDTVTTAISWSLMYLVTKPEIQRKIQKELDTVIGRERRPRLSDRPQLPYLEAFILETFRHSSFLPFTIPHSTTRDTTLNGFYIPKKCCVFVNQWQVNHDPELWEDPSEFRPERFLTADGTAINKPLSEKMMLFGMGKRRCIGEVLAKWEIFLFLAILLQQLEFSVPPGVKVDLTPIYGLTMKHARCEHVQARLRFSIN
The method, then: as §6, §7, §8, §9, §10, §11, §12

For the next test, the target named is T1, human PPARδ (Homo sapiens, UniProt Q03181).
T1 construct: expressed in transfected cells; host or cells: HEK293T
T1 sequence (Q03181 211-439 limits assumed): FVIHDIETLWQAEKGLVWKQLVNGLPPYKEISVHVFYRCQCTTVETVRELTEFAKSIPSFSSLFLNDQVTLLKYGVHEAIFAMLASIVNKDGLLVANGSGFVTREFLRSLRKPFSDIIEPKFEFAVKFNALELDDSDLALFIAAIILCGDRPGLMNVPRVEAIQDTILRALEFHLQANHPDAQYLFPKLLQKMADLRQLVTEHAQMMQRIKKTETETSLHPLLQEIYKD
Put plainly: Gal4-hybrid reporter gene assay, PPARδ activation. The class given is cell-based. As to the method:
Compounds 1–3 were characterized in a hybrid reporter gene assay for their agoniztic effect on human nuclear receptors PPARα/γ/δ, RXRα, FXRα, RARα in HEK293T cells. Compound 1 was tested in an isothermal titration calorimetry (ITC) assay to measure direct binding affinity to the ligand-binding domain of PPARγ. ADME properties were measured in standardized assays at Roche.
PPAR activation was determined in uniform Gal4-hybrid reporter gene assays for the PPARα, PPARγ and PPARδ isoforms in HEK293T cells (German Collection of Microorganisms and Cell Culture GmbH, DSMZ) which were transiently transfected with pFR-Luc (Stratagene, La Jolla, CA, USA; reporter) and pRL-SV40 (Promega, Madison, WI, USA; internal control) and one pFA-CMV-hPPAR-LBD[97] clone, coding for the hinge region and ligand binding domain of the canonical isoform of human PPARα, PPARγ, PPARδ or respectively. Cells were cultured in Dulbecco’s modified Eagle’s medium (DMEM), high glucose supplemented with 10% fetal calf serum (FCS), sodium pyruvate (1 mM), penicillin (100 U ⋅ ml^-1), and streptomycin (100 μg ⋅ ml^-1) at 37 °C and 5% CO2 and seeded in 96-well plates (3 × 10^4 cells per well). After 24 h, medium was changed to Opti-MEM without supplements and cells were transiently transfected using Lipofectamine LTX reagent (Invitrogen) according to the manufacturer’s protocol. Five hours after transfection, cells were incubated with the test compounds in Opti-MEM supplemented with penicillin (100 U ⋅ ml^-1), streptomycin (100 μg ⋅ ml^-1) and 0.1% DMSO for 16 h before luciferase activity was measured using the Dual-Glo Luciferase Assay System (Promega) according to the manufacturer’s protocol on a Tecan Spark luminometer (Tecan Deutschland GmbH, Germany). Firefly luminescence was divided by Renilla luminescence and multiplied by 1000 resulting in relative light units (RLU) to normalize for transfection efficiency and cell growth. Fold activation was obtained by dividing the mean RLU of a test compound by the mean RLU of the untreated control. […]

The next test concerns the target 5HT2B (Homo sapiens, UniProt P41595). Briefly: Safety off-target panel, binding. The note with it: single point.
From the text: as §1, §2, §3, §4, §5

A further test deals with β1-ADRENOCEPTOR (Homo sapiens, UniProt P08588). Briefly: Safety off-target panel, binding. To be noted: single point.
UniProt P08588, sequence (P08588 whole entry): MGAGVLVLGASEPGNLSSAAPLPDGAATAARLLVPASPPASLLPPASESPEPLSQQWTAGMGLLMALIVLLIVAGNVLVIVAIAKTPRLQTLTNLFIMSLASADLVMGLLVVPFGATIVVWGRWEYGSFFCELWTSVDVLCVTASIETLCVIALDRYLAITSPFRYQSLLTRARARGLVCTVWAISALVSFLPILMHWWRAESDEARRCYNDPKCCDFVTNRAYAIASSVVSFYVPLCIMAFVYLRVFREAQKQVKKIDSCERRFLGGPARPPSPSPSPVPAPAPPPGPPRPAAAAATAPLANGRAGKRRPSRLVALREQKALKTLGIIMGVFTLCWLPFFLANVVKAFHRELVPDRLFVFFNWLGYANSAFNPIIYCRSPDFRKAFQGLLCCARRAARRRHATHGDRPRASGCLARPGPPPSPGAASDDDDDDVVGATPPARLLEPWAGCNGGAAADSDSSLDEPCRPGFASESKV
From the text: as §1, §2, §3, §4, §5

Test [3] addresses DOPAMINE D2 RECEPTOR (short) (Homo sapiens, UniProt P14416). Put plainly: Safety off-target panel, binding. To be noted: single point.
From the text: as §1, §2, §3, §4, §5

The target in the next test is ANDROGEN RECEPTOR (Homo sapiens, UniProt P10275). Put plainly: Safety off-target panel, binding. To be noted: single point.
ANDROGEN RECEPTOR, sequence (P10275 whole entry): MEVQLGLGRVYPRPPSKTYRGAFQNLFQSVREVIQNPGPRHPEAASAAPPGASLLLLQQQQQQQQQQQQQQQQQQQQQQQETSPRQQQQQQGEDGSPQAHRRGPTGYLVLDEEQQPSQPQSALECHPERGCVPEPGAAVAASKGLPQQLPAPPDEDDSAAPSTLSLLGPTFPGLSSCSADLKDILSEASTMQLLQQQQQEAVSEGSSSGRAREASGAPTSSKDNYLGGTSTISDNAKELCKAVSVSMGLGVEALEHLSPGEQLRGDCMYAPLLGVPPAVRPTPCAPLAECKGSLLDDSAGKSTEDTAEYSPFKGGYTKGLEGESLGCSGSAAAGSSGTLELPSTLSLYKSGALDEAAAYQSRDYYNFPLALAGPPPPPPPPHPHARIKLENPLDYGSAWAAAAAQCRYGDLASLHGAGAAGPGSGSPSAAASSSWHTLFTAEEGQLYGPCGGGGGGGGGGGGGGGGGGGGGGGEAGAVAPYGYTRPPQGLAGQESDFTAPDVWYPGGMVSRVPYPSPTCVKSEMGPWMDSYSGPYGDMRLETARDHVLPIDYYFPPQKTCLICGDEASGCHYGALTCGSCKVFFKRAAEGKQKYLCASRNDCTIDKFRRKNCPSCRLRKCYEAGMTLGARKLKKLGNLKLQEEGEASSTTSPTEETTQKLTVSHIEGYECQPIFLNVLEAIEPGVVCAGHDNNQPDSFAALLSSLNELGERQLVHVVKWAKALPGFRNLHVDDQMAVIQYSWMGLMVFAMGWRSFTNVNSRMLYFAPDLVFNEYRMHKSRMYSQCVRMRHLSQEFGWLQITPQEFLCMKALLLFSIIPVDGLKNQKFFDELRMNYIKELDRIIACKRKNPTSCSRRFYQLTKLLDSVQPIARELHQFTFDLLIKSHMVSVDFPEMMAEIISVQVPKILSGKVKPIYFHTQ
From the text: as §1, §2, §3, §4, §5

The target of test [4] is ANGIOTENSIN II RECEPTOR 1 (Homo sapiens, UniProt P30556). Put plainly: Safety off-target panel, binding. The note with it: single point.
ANGIOTENSIN II RECEPTOR 1, sequence (P30556 whole entry): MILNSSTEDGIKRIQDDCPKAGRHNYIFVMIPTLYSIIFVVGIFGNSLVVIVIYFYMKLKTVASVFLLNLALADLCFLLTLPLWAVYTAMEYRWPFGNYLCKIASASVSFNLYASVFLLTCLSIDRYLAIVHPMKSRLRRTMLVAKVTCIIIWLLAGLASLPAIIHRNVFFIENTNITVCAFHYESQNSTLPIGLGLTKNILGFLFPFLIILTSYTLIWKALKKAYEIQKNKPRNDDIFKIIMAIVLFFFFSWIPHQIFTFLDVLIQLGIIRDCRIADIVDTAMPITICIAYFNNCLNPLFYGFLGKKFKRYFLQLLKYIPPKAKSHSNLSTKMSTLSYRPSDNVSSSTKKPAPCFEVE
From the text: as §1, §2, §3, §4, §5

The target of test [5] is CHOLECYSTOKININ 1 RECEPTOR (Homo sapiens, UniProt P32238). Briefly: Safety off-target panel, binding. To be noted: single point.
UniProt P32238, sequence (P32238 whole entry): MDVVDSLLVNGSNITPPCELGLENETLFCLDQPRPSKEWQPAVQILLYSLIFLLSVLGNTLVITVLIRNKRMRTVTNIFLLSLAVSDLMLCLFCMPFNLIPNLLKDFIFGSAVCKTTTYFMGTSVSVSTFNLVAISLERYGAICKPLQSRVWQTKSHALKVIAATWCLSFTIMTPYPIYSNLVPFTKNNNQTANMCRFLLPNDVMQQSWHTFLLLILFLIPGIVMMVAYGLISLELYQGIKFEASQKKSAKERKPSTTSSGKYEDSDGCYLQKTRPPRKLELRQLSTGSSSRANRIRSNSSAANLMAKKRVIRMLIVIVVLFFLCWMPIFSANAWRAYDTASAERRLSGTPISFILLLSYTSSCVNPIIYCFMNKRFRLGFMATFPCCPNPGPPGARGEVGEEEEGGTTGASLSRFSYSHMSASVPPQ
From the text: as §1, §2, §3, §4, §5

DOPAMINE D2 RECEPTOR (short), sequence (P14416 1-414 isoform P14416-2): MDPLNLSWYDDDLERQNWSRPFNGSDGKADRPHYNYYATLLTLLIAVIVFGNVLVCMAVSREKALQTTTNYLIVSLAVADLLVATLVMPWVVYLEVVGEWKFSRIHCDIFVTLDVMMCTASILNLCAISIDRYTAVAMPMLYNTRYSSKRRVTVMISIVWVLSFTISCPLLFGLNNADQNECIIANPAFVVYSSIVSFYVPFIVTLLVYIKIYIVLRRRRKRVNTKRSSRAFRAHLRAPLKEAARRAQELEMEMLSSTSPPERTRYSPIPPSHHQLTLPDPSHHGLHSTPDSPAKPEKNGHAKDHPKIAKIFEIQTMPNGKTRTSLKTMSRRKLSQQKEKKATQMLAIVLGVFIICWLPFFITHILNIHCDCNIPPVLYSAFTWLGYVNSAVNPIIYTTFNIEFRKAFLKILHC
5HT2B, sequence (P41595 whole entry): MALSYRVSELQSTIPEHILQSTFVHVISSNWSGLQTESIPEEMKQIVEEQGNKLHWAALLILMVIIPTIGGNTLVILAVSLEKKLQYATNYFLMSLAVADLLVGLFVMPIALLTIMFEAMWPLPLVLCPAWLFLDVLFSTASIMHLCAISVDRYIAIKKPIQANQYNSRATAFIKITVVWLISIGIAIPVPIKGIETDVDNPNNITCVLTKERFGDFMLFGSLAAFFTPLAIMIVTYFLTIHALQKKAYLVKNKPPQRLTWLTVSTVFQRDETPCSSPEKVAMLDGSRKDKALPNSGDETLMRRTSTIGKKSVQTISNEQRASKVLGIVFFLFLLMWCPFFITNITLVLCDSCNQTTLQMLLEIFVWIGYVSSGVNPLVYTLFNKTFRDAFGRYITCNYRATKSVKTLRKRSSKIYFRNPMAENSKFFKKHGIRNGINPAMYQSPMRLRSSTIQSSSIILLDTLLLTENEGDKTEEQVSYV

Broadly, the IC50 is the concentration needed to halve the response being measured. High values mean weaker potency, low ones greater potency. The EC50 is the concentration that produces a half-maximal response. The low end stands for a more potent agent, the high end for a less potent agent. In general, inhibition refers to the change of the read-out against control, counted positive when it falls. Regarding `Cc1nnc(-c2ccc(OCCCOc3ccc(CCC(=O)O)c(F)c3)c(F)c2)s1` [Compound 1], the “Mean inhibition (%)” value in [1] is reported as -4.7%; in the test with PCP RECEPTOR, -12.0%; in test [2] it was 12.5%. Moreover, the IC50 against CYP2C19, against CYP2B6 and at CYP1A2 was more than 20 µM in each case. The molecule also showed an EC50 at human PPARδ (HEK293T cells) of 0.24 ± 0.05 µM. Moreover, the inhibition at 10 µM on 5HT2B is 6.6%; at β1-ADRENOCEPTOR it was 0.7%; in [3], -1.9%; at ANDROGEN RECEPTOR it was -1.6%; in test [4], -7.5%; in [5], 1.2%.
As for `COc1ccc(Oc2ccc3ncn(CCOc4ccc(CCC(=O)O)cc4)c3c2)cc1` [Compound 2], the figures for the “Mean inhibition (%)” value (in [1]; in the test on PCP RECEPTOR; in test [2]) were -11.7%, 11.8% and 57.8%, respectively. Moreover, the IC50 against CYP2C19, against CYP2B6 and on CYP1A2 was more than 20 µM each time. Moreover, the “activity on PPARδ” value at human PPARδ (result in words) was “no discernible impact”. Besides, the inhibition at 10 µM was 7.1% at 5HT2B; 6.9% at β1-ADRENOCEPTOR; -6.8% in test [3]; 3.1% on ANDROGEN RECEPTOR; -6.2% in test [4]; 7.6% in test [5].
